Experimental data published in patent US4030886A, “Saturation analysis” (The Radiochemical Centre Limited, priority 1973, dated 1977).
Like-named read-outs stand apart in the source and are kept apart here.

Test system: antiserum raised in rabbit against estriol-6-CMO-BSA
Settings: 4 ng label, antiserum 1:200
Method: Into each assay tube was dispensed 0.1M phosphate buffer containing 5% human serum (pH 7.0; 200μl), antiserum raised in rabbit against estriol-6-CMO-BSA and diluted 1:200 in 0.1M Phosphate buffer containing 5% human serum (200μl), and selenomethionine-Se75 conjugate of estriol-6-CMO (4 ng; 400 mCi/m mol). Standard amounts of estriol (1.25 ng, 10 ng and 20 ng) in human serum were added to each assay tube; to one tube was added buffer instead of antiserum as a blank. The contents of each tube were mixed and incubated at room temperature for one hour. Ammonium sulphate solution was then added (5.4g (NH4)2 SO4 = 10 ml H2 O; 500 μl) and after mixing, the solutions were centrifuged. The supernatant was removed and the precipitate counted in a gamma counter. The percentage of total counts bound to the precipitate was calculated.

selenomethionine-Se75 conjugate of estriol-6-carboxymethyloxime
% of total counts bound minus blank (0 ng estriol added): 59.1%
% of total counts bound minus blank (1.25 ng estriol added): 55.3%
% of total counts bound minus blank (10 ng estriol added): 44.3%
% of total counts bound minus blank (20 ng estriol added): 39.0%
